For 17 compounds, melting point and IC50 results are on record in patent US6552012B2 (priority 2000, dated 2003).

Data set [1] concerns the target T1, nAChR formed by the α7 subunit isoform (Rattus norvegicus, UniProt Q05941).
T1 construct: Cerebral cortices from male Wistar rats (150-250 g) are homogenised; from tissue; host or cells: rat cerebral cortex membranes (male Wistar)
The data set is described as follows: biochemical. In kind it is binding. The following applies: read-out: Assay III IC50.

Data set [2] concerns the target T2, nAChRs comprised of α4 and β2 subunits (Rattus norvegicus, UniProt P09483+P12390).
T2 construct: Cerebral corticies from male Wistar rats (150-250 g) are homogenised; from tissue; host or cells: rat cerebral cortex membranes (male Wistar)
The data set is described as follows: In vitro inhibition of 3H-cytisine binding (Assay I). The procedure: In Vitro inhibition of ^3H-cytisine binding (Assay I)
The predominant subtype with high affinity for nicotine is comprised of α4 and β2 subunits. nAChRs of the latter type can selectively be labelled by the nicotine agonist ^3H-cytisine.
Preparations are performed at 0-4° C. unless otherwise indicated. Cerebral corticies from male Wistar rats (150-250 g) are homogenised for 20 seconds in 15 ml Tris, HCl (50 mM, pH 7.4) containing 120 mM NaCl, 5 mM KCl, 1 mM MgCl2 and 2.5 mM CaCl2 using an Ultra-Turrax homogeniser. The homogenate is centrifuged at 27,000×g for 10 minutes. The supernatant is discarded and the pellet is resuspended in fresh buffer and centrifuged a second time. The final pellet is resuspended in fresh buffer (35 ml per g of original tissue) and used for binding assays.
Aliquots of 500 μl homogenate are added to 25 μl of test solution and 25 μl of ^3H-cytisine (1 nM, final concentration), mixed and incubated for 90 minutes at 2° C. Non-specific binding is determined using (−)-nicotine (100 μM, final concentration). After incubation the samples are added 5 ml of ice-cold buffer and poured directly onto Whatman GF/C glass fibre filters under suction and immediately washed with 2×5 ml ice-cold buffer. The amount of radioactivity on the filters is determined by conventional liquid scintillation counting. Specific binding is total binding minus non-specific binding.

The mark [3] stands for this setting: 3H-cytisine 1 nM, rat cerebral cortex homogenate, read-out: Assay I IC50.

Counter-ions that a name gives are not always drawn. Like-named read-outs stand apart in the source and are kept apart here. Bounds are passed on as bounds.

T2 sequence (P09483 31-630): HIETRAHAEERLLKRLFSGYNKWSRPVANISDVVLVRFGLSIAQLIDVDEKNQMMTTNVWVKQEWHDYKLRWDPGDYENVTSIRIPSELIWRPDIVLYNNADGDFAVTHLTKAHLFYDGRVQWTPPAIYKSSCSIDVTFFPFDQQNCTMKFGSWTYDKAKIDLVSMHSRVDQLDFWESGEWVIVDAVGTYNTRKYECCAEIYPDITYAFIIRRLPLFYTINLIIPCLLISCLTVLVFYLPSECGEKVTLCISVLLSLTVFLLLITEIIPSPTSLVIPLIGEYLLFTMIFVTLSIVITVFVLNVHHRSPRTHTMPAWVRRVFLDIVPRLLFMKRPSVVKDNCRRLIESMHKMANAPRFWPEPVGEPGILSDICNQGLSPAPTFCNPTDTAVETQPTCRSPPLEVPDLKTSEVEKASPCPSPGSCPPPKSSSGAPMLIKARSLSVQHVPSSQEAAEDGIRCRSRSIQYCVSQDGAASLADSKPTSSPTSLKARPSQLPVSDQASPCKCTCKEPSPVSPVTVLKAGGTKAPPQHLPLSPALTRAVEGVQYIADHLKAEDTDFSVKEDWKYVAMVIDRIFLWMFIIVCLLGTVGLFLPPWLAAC
T2 sequence (P12390 25-500): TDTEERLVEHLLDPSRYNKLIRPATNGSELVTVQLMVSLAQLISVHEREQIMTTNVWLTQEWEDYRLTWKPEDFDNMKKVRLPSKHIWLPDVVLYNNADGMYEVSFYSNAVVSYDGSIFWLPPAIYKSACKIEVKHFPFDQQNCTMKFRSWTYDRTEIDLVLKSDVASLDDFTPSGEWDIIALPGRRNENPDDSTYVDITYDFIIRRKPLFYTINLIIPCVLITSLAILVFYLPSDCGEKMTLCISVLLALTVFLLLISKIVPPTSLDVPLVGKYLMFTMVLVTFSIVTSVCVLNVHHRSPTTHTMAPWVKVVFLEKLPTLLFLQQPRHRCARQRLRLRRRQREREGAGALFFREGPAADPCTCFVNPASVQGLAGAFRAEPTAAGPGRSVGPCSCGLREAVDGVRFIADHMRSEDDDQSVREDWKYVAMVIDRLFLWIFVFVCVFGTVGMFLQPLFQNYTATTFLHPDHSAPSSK
T1 sequence (Q05941 23-502): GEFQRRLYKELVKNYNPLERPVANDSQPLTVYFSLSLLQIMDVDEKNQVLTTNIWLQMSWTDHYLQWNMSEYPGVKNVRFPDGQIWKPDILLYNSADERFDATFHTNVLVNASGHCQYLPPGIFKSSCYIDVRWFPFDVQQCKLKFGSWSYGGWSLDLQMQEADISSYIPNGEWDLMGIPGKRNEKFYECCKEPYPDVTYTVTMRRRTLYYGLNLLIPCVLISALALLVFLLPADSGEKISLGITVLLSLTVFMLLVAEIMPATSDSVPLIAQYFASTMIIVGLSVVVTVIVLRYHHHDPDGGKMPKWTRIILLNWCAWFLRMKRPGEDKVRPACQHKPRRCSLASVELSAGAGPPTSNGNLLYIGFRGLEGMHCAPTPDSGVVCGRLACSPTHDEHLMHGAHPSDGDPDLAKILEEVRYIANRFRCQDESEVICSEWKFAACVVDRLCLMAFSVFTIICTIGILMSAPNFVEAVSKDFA

The compound `CC=COc1cncc(N2CCC3CCC(C2)N3)c1` (stereo not drawn) (as salt: fumaric acid salt) [3-[5-(Propyl-1-en-oxy)-3-pyridyl]-3,9-diazabicyclo-[4.2.1]-nonane bis Fumaric Acid Salt] had a melting point of 144 to 146 °C.
The compound `COc1cncc(N2C3CCNCC2CC3)c1` (stereo not drawn) (as salt: fumaric acid salt) [9-[5-Methoxy)-(3-pyridyl)]-3,9-diazabicyclo-[4.2.1]-nonane Fumaric Acid Salt] registered a melting point of 183 to 185 °C.
For the compound `CN1C2CCC1CN(c1ccc(Cl)nn1)CC2` (stereo not drawn) [3-[6-Chloro-(3-pyridazinyl)]-9-methyl-3,9-diazabicyclo-[4.2.1]-nonane Fumaric Acid Salt], the IC50 in data set [1] worked out at 10000 nM; in data set [2] it was 1200 nM.
As for `CCOc1cncc(N2CCC3CCC(C2)N3C)c1` (stereo not drawn) [3-[5-Ethoxy-(3-pyridyl)]-9-methyl-3,9-diazabicyclo-[4.2.1]-nonane bis-fumaric Acid Salt], the figures for the IC50 in data set [1] and in data set [2] (setting [3]) were 8100 nM and 5 nM, respectively.
`CN1C2CCC1CN(c1cncc(Cl)c1)CC2.O=C(O)/C=C/C(=O)O` (stereo not drawn) gave a melting point of 181 to 182 °C.
Turning to `CC=COc1cncc(N2CCC3CCC(C2)N3C)c1` (stereo not drawn) [3-[5-(Propyl-1-en-oxy)-3-pyridyl]-9-methyl-3,9-diazabicyclo-[4.2.1]-nonane Fumaric Acid Salt], the IC50 in data set [1] came out at 10000 nM; in data set [2] it was 5 nM.
`CCOc1cncc(N2CCC3CCC(C2)N3)c1.O=C(O)/C=C/C(=O)O` (stereo not drawn) [3-(5-Ethoxy-3-pyridyl)-3,9-diazabicyclo-[4.2.1]-nonane Fumaric Acid Salt] gave a melting point of 143 to 146 °C. Also, the IC50 in data set [1] is 6200 nM. Also, in data set [2] (setting [3]), the IC50 was less than 30 nM.
Taken in the same sequence, the figures for `C=COc1cncc(N2CCC3CCC(C2)N3)c1.O=C(O)/C=C/C(=O)O` (stereo not drawn) [3-(5-Ethenyloxy-3-pyridyl)-3,9-diazabicyclo-[4.2.1]-nonane Fumaric Acid Salt] were 145 to 147 °C, 1500 nM and 2 nM.
As to `CN1C2CCCC1CN(c1cncc(Br)c1)CC2.O=C(O)/C=C/C(=O)O` (stereo not drawn), the melting point lay in the range of 162.5 to 164.5 °C.
Consider `C=COc1cncc(N2CCC3CCC(C2)N3C)c1` (stereo not drawn) [3-(5Ethenyloxy-3-pyridyl)-9-methyl-3,9-diazabicyclo-[4.2.1]-nonane Fumaric Acid Salt], for which the IC50 in data set [1] was 5800 nM; in data set [2] (setting [3]), 3 nM.
The compound `CCOc1cc(N2CCC3CCC(C2)N3C)cnc1Cl.O=C(O)/C=C/C(=O)O` (stereo not drawn) had a melting point of 208.6 °C.
For `CC=COc1cncc(N2CCC3CCC(C2)N3)c1` (stereo not drawn) [3-[5-(Propyl-1-en-oxy)-3-pyridyl]-3,9-diazabicyclo-[4.2.1]-nonane bis Fumaric Acid Salt], the IC50 worked out at 1800 nM in data set [1] and 2 nM in data set [2].
Taken in the same sequence, the figures for `Clc1ccc(N2CCC3CCC(C2)N3)nn1` (stereo not drawn) [3-[6-Chloro-(3-pyridazinyl)]-3,9-diazabicyclo-[4.2.1]-nonane Fumaric Acid Salt] were 1400 nM and 20 nM.
Turning to `CC=COc1cncc(N2C3CCNCC2CC3)c1` (stereo not drawn) (as salt: fumaric acid salt) [9-[5-(Propyl-1-en-oxy)-(3-pyridyl)]-3,9-diazabicyclo-[4.2.1]-nonane Fumaric Acid Salt], the melting point is 161.5 to 163 °C.
For `CCOc1cncc(N2C3CCNCC2CC3)c1` (stereo not drawn) [9-[5-Ethoxy-(3-pyridyl)]-3,9-diazabicyclo-[4.2.1]-nonane Fumaric Acid Salt], the IC50 turned out to be 2700 nM in data set [1] and 3 nM in data set [2] (setting [3]).
Taken in the same sequence, the figures for `CC=COc1cncc(N2C3CCNCC2CC3)c1` (stereo not drawn) [9-[5-(Propyl-1-en-oxy)-(3-pyridyl)]-3,9-diazabicyclo-[4.2.1]-nonane Fumaric Acid Salt] were 2700 nM and 3 nM.
In the case of `COc1cncc(N2C3CCNCC2CC3)c1` (stereo not drawn) [9-[5-Methoxy)-(3-pyridyl)]-3,9-diazabicyclo-[4.2.1]-nonane Fumaric Acid Salt], the IC50 was found to be 3000 nM in data set [1] and 150 nM in data set [2].
